Reference: publication PMC4111244 (Bioorganic & medicinal chemistry letters, 2013)
Where two headings read alike, the source gives them in different places.

Experiments:
T. cruzi amastigotes [1] = experiment: Activity against T. cruzi amastigotes in culture; type: cell-based, Trypanosoma cruzi; settings: for fold increase in potency compared with compound 12: T. cruzi cultures; for fold drop in potency on replacement of the aniline moiety: versus amino compound (compound 2); for EC50: Trypanosoma cruzi, read-out: T. cruzi EC50(nM), T. cruzi amastigotes in culture
T. cruzi = settings: ref previous studies; cited from earlier work
[2] = biological target: T. cruzi sterol 14α-demethylase (CYP51) (Trypanosoma cruzi, UniProt Q7Z1V1); experiment: Spectral response; settings: P450 2.2 μM; titration range 0.4-7.6 μM
T. cruzi amastigotes [3] = settings: read-out: EC50 against T.cruzi in culture; cited from earlier work

Chain of T. cruzi sterol 14α-demethylase (CYP51) (Q7Z1V1 whole entry): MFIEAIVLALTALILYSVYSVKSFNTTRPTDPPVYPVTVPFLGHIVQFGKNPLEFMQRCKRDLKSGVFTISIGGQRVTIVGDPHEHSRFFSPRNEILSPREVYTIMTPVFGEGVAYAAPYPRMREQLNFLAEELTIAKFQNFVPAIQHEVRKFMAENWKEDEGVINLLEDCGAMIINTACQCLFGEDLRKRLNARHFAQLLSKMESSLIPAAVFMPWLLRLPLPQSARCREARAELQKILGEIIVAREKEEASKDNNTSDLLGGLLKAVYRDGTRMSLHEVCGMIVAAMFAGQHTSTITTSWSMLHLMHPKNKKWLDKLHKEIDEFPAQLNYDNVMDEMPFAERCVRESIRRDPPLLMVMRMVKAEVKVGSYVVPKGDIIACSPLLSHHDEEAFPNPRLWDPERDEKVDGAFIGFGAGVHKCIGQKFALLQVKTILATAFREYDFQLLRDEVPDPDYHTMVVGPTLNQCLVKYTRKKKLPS

## Nc1cc(-c2ccccc2)ccc1Cn1cncc1CNc1ccc(-c2nc3ccccc3s2)c(-c2ccccc2)c1 [Compound 2]
T. cruzi amastigotes [1]; versus compound 12
  fold increase in potency compared with compound 12: 20 fold
T. cruzi
  efficacy in the acute model of the disease: highly efficacious

## COc1cc(-c2ccccc2)ccc1Cn1cncc1CNc1ccc(Cl)c(-c2ccccc2)c1 [Compound 24n]
T. cruzi amastigotes [1]
  fold drop in potency on replacement of the aniline moiety: > 27 fold

## Nc1cc(-c2ccccc2)ccc1Cn1cncc1CNc1ccc(Cl)cc1 [Compound 36k]
T. cruzi amastigotes [1]
  activity against T.cruzi amastigotes (in words): excellent activity

## Nc1cc(-c2ccccc2)ccc1Cn1cncc1CNc1ccc(Cl)c(-n2ccnc2)c1 [Compound 36h]
T. cruzi amastigotes [1]
  EC50: < 10 nM

## Oc1cc(-c2ccccc2)ccc1Cn1cncc1CNc1ccc(Cl)c(-c2ccccc2)c1 [Compound 24o]
T. cruzi amastigotes [1]
  fold drop in potency on replacement of the aniline moiety: > 27 fold

## Nc1ccc(-c2cc(NCc3cncn3Cc3ccc(-c4ccccc4)cc3)ccc2-c2nc3ccccc3s2)cc1 [Compound 12k]
T. cruzi amastigotes [1]; versus compound 12
  fold increase in potency compared with compound 12: > 10 fold

## COc1ccc(NCc2cncn2Cc2ccc(-c3ccccc3)cc2N)nc1-c1ccccc1 [Compound 26c]
[2]
  binding to the haem moiety in the CYP51 active site (spectral type): Soret Type II binding spectra

## Nc1cc(-c2ccccc2)ccc1Cn1cncc1CNc1ccc(Cl)c(Cl)c1 [Compound 36f]
T. cruzi amastigotes [1]
  EC50: < 10 nM

## Cc1cc(NCc2cncn2Cc2ccc(-c3ccccc3)cc2N)ccc1Cl [Compound 36j]
T. cruzi amastigotes [1]
  activity against T.cruzi amastigotes (in words): excellent activity

## CC[C@@H]([C@H](C)O)n1ncn(-c2ccc(N3CCN(c4ccc(OC[C@@H]5CO[C@@](Cn6cncn6)(c6ccc(F)cc6F)C5)cc4)CC3)cc2)c1=O [posaconazole]
T. cruzi amastigotes [3]
  EC50: < 1 nM

## Fc1cc(-c2ccccc2)ccc1Cn1cncc1CNc1ccc(F)c(-c2ccccc2)c1 [Compound 24a]
T. cruzi amastigotes [1]
  EC50: < 20 nM

## O=C(O)c1cc(-c2ccccc2)ccc1Cn1cncc1CNc1ccc(-c2nc3ccccc3s2)c(-c2ccccc2)c1 [Compound 24q]
T. cruzi amastigotes [1]
  fold drop in potency on replacement of the aniline moiety: > 27 fold

## Nc1cc(-c2ccccc2)ccc1Cn1cncc1CNc1ccc(F)cc1 [Compound 36p]
T. cruzi amastigotes [1]
  activity against T.cruzi amastigotes (in words): excellent activity

## Fc1ccc(NCc2cncn2Cc2ccc(-c3ccccc3)cc2F)cc1 [Compound 24b]
T. cruzi amastigotes [1]; against T. cruzi, versus compound 12
  fold drop in potency compared with compound 12: less than 4 fold
